Source: the supplement of paper PMC13380429

Assays:
Conditions in all cases: 72 h
Calu-3 [1] = assay: cell viability relative to DMSO; higher = less toxic
U2OS [2] = assay: as above
Caco-2 [3] = assay: as above
Vero E6 [4] = assay: as above
HepG2 [5] = assay: as above
Vero E6 [6] = assay: relative viability EC50 (midpoint between 100% and the lowest measured viability); higher = less toxic
HepG2 [7] = assay: as above
Calu-3 [8] = assay: drug sensitivity score (DSS) for viability; higher = more toxic; extreme values may be limits of the assay
U2OS [9] = assay: as above
Caco-2 [10] = assay: as above
Vero E6 [11] = assay: as above
HepG2 [12] = assay: as above
Calu-3 [13] = assay: relative viability EC50 (midpoint between 100% and the lowest measured viability); higher = less toxic
U2OS [14] = assay: as above
Caco-2 [15] = assay: as above

Structure (SMILES)	cell viability (Calu-3 [1]; 1 nM) [%]	cell viability (Calu-3 [1]; 10 nM) [%]	cell viability (Calu-3 [1]; 100 nM) [%]	cell viability (Calu-3 [1]; 1000 nM) [%]	cell viability (Calu-3 [1]; 10000 nM) [%]	cell viability (U2OS [2]; 1 nM) [%]	cell viability (U2OS [2]; 10 nM) [%]	cell viability (U2OS [2]; 100 nM) [%]	cell viability (U2OS [2]; 1000 nM) [%]	cell viability (U2OS [2]; 10000 nM) [%]	cell viability (Caco-2 [3]; 1 nM) [%]	cell viability (Caco-2 [3]; 10 nM) [%]	cell viability (Caco-2 [3]; 100 nM) [%]	cell viability (Caco-2 [3]; 1000 nM) [%]	cell viability (Caco-2 [3]; 10000 nM) [%]	cell viability (Vero E6 [4]; 1 nM) [%]	cell viability (Vero E6 [4]; 10 nM) [%]	cell viability (Vero E6 [4]; 100 nM) [%]	cell viability (Vero E6 [4]; 1000 nM) [%]	cell viability (Vero E6 [4]; 10000 nM) [%]	cell viability (HepG2 [5]; 1 nM) [%]	cell viability (HepG2 [5]; 10 nM) [%]	cell viability (HepG2 [5]; 100 nM) [%]	cell viability (HepG2 [5]; 1000 nM) [%]	cell viability (HepG2 [5]; 10000 nM) [%]	relative viability EC50 (Vero E6 [6]) [µM]	relative viability EC50 (HepG2 [7]) [µM]	drug sensitivity score (Calu-3 [8])	drug sensitivity score (U2OS [9])	drug sensitivity score (Caco-2 [10])	drug sensitivity score (Vero E6 [11])	drug sensitivity score (HepG2 [12])	relative viability EC50 (Calu-3 [13]) [µM]	relative viability EC50 (U2OS [14]) [µM]	relative viability EC50 (Caco-2 [15]) [µM]
CC(C)(C)C[C@@H]1N[C@@H](C(=O)N[C@H]2CC[C@H](O)CC2)[C@H](c2cccc(Cl)c2F)[C@]12C(=O)Nc1cc(Cl)ccc12	90.6	92.3	95.5	110	73.1	99.6	109	96.3	80.7	58.2	97.7	104	91	94.3	73.2	100	102	97.8	63.4	49.3	108	95.8	95.5	28.7	24.2	0.583	0.315	0.7	4.2	1.7	7.2	13.8	–	–	–
Cc1ccc(C(=O)Nc2ccc(Oc3cc4cnn(C)c4cc3-c3cn[nH]c3)c(F)c2)c(=O)n1-c1ccc(F)cc1	92	91.9	101	70.7	65.3	101	95.5	98.8	96.9	69.9	98	94.9	102	99.3	53.8	103	99.6	96.7	92.1	68.1	102	110	97.4	75.5	15.6	–	1.43	5.1	1.8	2.5	2.6	8.3	–	–	–
O=C(NCC1(N2CCN(c3ccccc3)CC2)CCOCC1)c1cccnc1Sc1ccccc1	99.4	106	104	99.8	95	96.1	96.5	101	98.9	102	99.8	97.4	103	98.1	94.1	–	–	–	–	–	107	101	103	97.5	91.4	–	> 10	0	0	0	–	0	> 10	> 10	> 10
CC(=O)N1CCN(c2ccc(OC[C@@H]3CO[C@@](Cn4ccnc4)(c4ccc(Cl)cc4Cl)O3)cc2)CC1 (racemic) [ketoconazole]	97.1	90.6	96.3	96.3	96.9	98.3	101	99.3	103	95.3	91.9	110	95.1	104	82.6	–	–	–	–	–	112	96.1	111	102	83.3	–	> 10	0	0	0.3	–	0.3	> 10	> 10	> 10
N=C(Nc1ccc(I)cc1)NC1C2CC3CC(C2)CC1C3 (stereo not given) [IPAG]	106	103	98.2	101	77.2	103	102	105	96.4	93.8	103	98.4	97.9	88.3	16.2	95.7	102	94.5	94.2	63.8	97.7	96	87.6	84.8	17	–	1.81	0.7	0	6.6	2.7	7.1	> 10	> 10	2.05
CCCCCCCCCCCCCCCC(=O)OC[C@H](O)[C@H]1OC(=O)C(O)=C1O [L-ascorbyl-6-palmitate]	98.9	104	94.5	108	113	100	103	97.5	102	97.9	95.2	100	96.1	99.7	95	–	–	–	–	–	101	93.2	92.6	94.4	97.7	–	> 10	0	0	0	–	0	> 10	> 10	> 10
CC(C)CNc1nc(-c2cccc3ncccc23)cn2c(-c3ccc(C(=O)NC4CC4)cc3)cnc12 [Mps-BAY-2a]	107	98.5	104	103	93	101	97.6	103	99.1	70.6	93.1	82.9	93.1	79.4	79.9	95.7	94.5	90.1	71.1	62.2	87.9	100	86	57.4	47.6	–	0.255	0	1.4	3.8	5.9	9.3	> 10	–	> 10
COc1cc2ncnc(Nc3ccc(Oc4ccccc4)cc3)c2cc1OC [SRC-kinase-inhibitor-I]	88.9	102	94	89.9	33.4	99.7	105	99.6	103	80.8	96.8	106	98	94.7	71.1	103	97.2	109	93.5	66.7	104	112	104	103	86.8	–	> 10	5.4	0.4	2.1	2.6	0.1	1.98	> 10	–
CCn1c(=O)n([C@H]2CCCN(c3nccc(-c4cc5ccccc5o4)n3)C2)c2ccccc21 [TC-F-2]	98.8	99.6	114	104	98.4	95.1	101	96.4	98.8	96.5	95.6	91.4	85.1	92	84.9	103	99.5	96.1	96.6	102	96	103	99.2	90.7	56.9	> 10	–	0	0	1.4	0	3.7	> 10	> 10	> 10
COc1cc(OC)c2c(=O)[nH]c(-c3cc(C)c(OCCO)c(C)c3)nc2c1 [apabetalone]	98.5	90.2	90.2	99.4	102	102	102	104	96.8	89.2	109	96.9	102	101	87.6	99.8	98.4	105	93	63.8	101	99.9	91.3	93.2	79.9	–	> 10	0	0	0	2.9	0.9	> 10	> 10	> 10
NS(=O)(=O)c1cc(-c2nnn[nH]2)c(NCc2cccs2)cc1Cl [azosemide]	–	–	–	–	–	–	–	–	–	–	99.4	111	86.5	92.4	92.1	103	108	104	106	97.1	94.5	103	103	95.7	89.6	> 10	> 10	–	–	1.6	0	0	–	–	> 10
C[C@@]12CCc3occc3[C@H]1CC[C@@]13C[C@@H](CC[C@H]12)[C@@](O)(CO)C3 [cafestol]	104	104	107	112	98.2	101	103	94.2	98.2	94.4	119	100	104	103	79.6	98.7	97.7	102	98	104	83.8	96.4	78.4	104	69.3	> 10	–	0	0	0.5	0	1.1	> 10	> 10	> 10
O=C(O)CCCCN(CCc1ccccc1OCc1ccc(CCc2ccccc2)cc1)Cc1ccc(C(=O)O)cc1 [cinaciguat]	–	–	–	–	–	–	–	–	–	–	110	110	104	86	104	–	–	–	–	–	106	110	98.9	109	105	–	> 10	–	–	0	–	0	–	–	> 10
O=C(c1ccc(OCCCc2c[nH]cn2)cc1)C1CC1 [ciproxifan]	93.4	101	99.9	88.2	93.1	96.1	105	96.8	95.8	97.5	101	97.1	91.8	94.2	88.4	101	102	101	101	94.2	106	107	99.8	74.3	88.6	> 10	–	0.5	0	0	0	4.1	> 10	> 10	> 10
Nc1ccn([C@@H]2O[C@H](CO)[C@@H](O)[C@@H]2O)c(=O)n1 [cytarabine]	99.6	93.8	91.9	88.6	70.9	103	94.3	96.3	96.9	72.8	106	97	90.7	85.9	80.6	95.8	96.5	93.5	95.1	62.1	95.2	100	66.4	42.1	38.7	–	0.09	2.4	1.6	2.1	2.7	15.2	–	–	> 10
